The structures appear in SMILES notation. Counter-ions that a name gives are not always drawn.

Chain of S1P1/EDG1 (P21453 whole entry): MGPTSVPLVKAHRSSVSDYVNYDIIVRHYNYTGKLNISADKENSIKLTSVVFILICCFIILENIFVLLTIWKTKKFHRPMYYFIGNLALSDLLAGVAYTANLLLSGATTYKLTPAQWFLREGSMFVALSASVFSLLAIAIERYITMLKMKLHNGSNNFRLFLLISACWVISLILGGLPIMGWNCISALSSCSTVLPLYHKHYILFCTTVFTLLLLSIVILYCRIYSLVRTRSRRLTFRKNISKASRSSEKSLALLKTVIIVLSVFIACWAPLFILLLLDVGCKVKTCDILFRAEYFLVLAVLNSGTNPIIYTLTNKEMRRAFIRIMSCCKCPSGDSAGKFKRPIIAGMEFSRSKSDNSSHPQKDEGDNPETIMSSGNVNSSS

This assay concerns the target S1P1/EDG1 (Homo sapiens, UniProt P21453). Kind of assay: S1P1 CRE-bla CHOK1 reporter assay (inhibition of Forskolin induced cAMP). The conditions noted are these: agonist activity range, S1P1 CRE-bla CHOK1 cells, 2 μM Forskolin; read-out: S1P1 ACTIVITY
It counts as cell-based. An excerpt: A mammalian expression plasmid containing S1P1/EDG1 cloned into pcDNA3.1 was purchased from Missouri S&T cDNA Resource Centre. The nucleotide and amino acid sequence of human S1P1/EDG1 are published in Hla and Maciag (J Biol Chem, 265(1990), 9308-9313). S1P1/pcDNA3.1 was transfected into the CRE-bla CHO K1 (Invitrogen) cell line, and stable single cell clones were selected using standard techniques. Expression of functional S1P1/EDG1 receptor was confirmed by cell surface FACS with a S1P1 antibody (R&D Systems, clone 218713) and S1P-mediated inhibition of Forskolin induced cAMP.
Cells were seeded into 384-well black wall/clear bottom plates at 10^4 cells/well/19.5 μl assay media (DMEM-phenol free, 0.5% charcoal/dextran stripped serum, 2 mM glutamine, 0.1 mM NEAA, 1 mM Na-Pyruvate, 25 mM Hepes) and incubated for 18 hrs at 37° C. in 5% CO2. Dose response curves (10-point) were generated in 10 mM Hepes, 0.1% Pluronic F127, in the presence of Forskolin. Cells were treated with 0.5 μl compound in the presence of 2 μM Forskolin for 4 hrs at 37° C. The FRET-based β-lactamase fluorescent substrate (LiveBLAzer™-FRET B/G Loading Kit CC4-AM; Invitrogen) was prepared according to manufacturer's directions, and incubated with cells for 2 hrs at room temperature. Plates were read at Ex:410/Em:458 and Ex:410/Em:522, and the response ratio determined. Data was analyzed by non-linear regression to determine the EC50 for inhibition of Forskolin induced cAMP.
For orientation: A reporter such as luciferase makes a cellular process visible.
Regarding `CC(C)Oc1ccc(-c2nc(-c3cccc4c3CCC[C@H]4NS(=O)(=O)CC(=O)N3CCC3)no2)cc1C#N` [Compound 43], the EC50 was below 0.05 nM. For `CC(C)Oc1ccc(-c2nc(-c3cccc4c3CCC[C@H]4NS(=O)(=O)CCN(C)C)no2)cc1C#N` [Compound 44, (R)-N-(5-(5-(3-cyano-4-isopropoxyphenyl)-1,2,4-oxadiazol-3-yl)-1,2,3,4-tetrahydronaphthalen-1-yl)-2-(dimethylamino)ethanesulfonamide], the EC50 is 0.05 to 0.5 nM. The figure for `CC(C)Oc1ccc(-c2nc(-c3cccc4c3CCC[C@@H]4NS(=O)(=O)CCN(C)C)no2)cc1C#N` [Compound 45, (S)-N-(5-(5-(3-cyano-4-isopropoxyphenyl)-1,2,4-oxadiazol-3-yl)-1,2,3,4-tetrahydronaphthalen-1-yl)-2-(dimethylamino) ethanesulfonamide] is 0.5 to 5 nM; for `CC(C)Oc1ccc(-c2nc(-c3cccc4c3CCC[C@@H]4NS(=O)(=O)CCN3CC[C@@H](O)C3)no2)cc1C#N` [Compound 46] it is 0.5 to 5 nM. In the case of `CC(C)Oc1ccc(-c2nc(-c3cccc4c3CCC[C@H]4NS(=O)(=O)CCN3CC[C@@H](O)C3)no2)cc1C#N` [Compound 47], the EC50 is 0.05 to 0.5 nM. The figure for `CC(C)Oc1ccc(-c2nc(-c3cccc4c3CCC[C@H]4NCCS(C)(=O)=O)no2)cc1C#N` [Compound 48, (R)-2-isopropoxy-5-(3-(5-((2-(methylsulfonyl)ethyl)amino)-5,6,7,8-tetrahydronaphthalen-1-yl)-1,2,4-oxadiazol-5-yl)benzonitrile] is 0.05 to 0.5 nM; for `CC(C)Oc1ccc(-c2nc(-c3cccc4c3CCC[C@H]4NCCO)no2)cc1C#N` [Compound 50, (R)-5-(3-(5-((2-hydroxyethyl)amino)-5,6,7,8-tetrahydronaphthalen-1-yl)-1,2,4-oxadiazol-5-yl)-2-isopropoxybenzonitrile] it is 0.05 to 0.5 nM.

As for `CC(C)Oc1ccc(-c2nc(-c3cccc4c3CCC[C@@H]4NCCO)no2)cc1C#N` [Compound 51, (S)-5-(3-(5-((2-hydroxyethyl)amino)-5,6,7,8-tetrahydronaphthalen-1-yl)-1,2,4-oxadiazol-5-yl)-2-isopropoxybenzonitrile], the EC50 was 0.05 to 0.5 nM.

With `CC(C)Oc1ccc(-c2nc(-c3cccc4c3CCC[C@H]4NCC(=O)O)no2)cc1C#N` [Compound 52, (R)-2-((5-(5-(3-cyano-4-isopropoxyphenyl)-1,2,4-oxadiazol-3-yl)-1,2,3,4-tetrahydronaphthalen-1-yl)amino) acetic acid], the EC50 was below 0.05 nM. For `CC(C)Oc1ccc(-c2nc(-c3cccc4c3CCC[C@@H]4NCC(=O)O)no2)cc1C#N` [Compound 53, (S)-2-((5-(5-(3-cyano-4-isopropoxyphenyl)-1,2,4-oxadiazol-3-yl)-1,2,3,4-tetrahydronaphthalen-1-yl)amino)acetic acid] the value was 0.05 to 0.5 nM; for `CC(C)Oc1ccc(-c2nc(-c3cccc4c3CCC[C@H]4NCC(=O)N3CCCC3)no2)cc1C#N` [Compound 54, (R)-2-isopropoxy-5-(3-(5-((2-oxo-2-(pyrrolidin-1-yl)ethyl)amino)-5,6,7,8-tetrahydronaphthalen-1-yl)-1,2,4-oxadiazol-5-yl)benzonitrile], 0.5 to 5 nM. Take `CC(C)Oc1ccc(-c2nc(-c3cccc4c3CCC[C@@H]4NCC(=O)N3CCCC3)no2)cc1C#N` [Compound 55, (S)-2-isopropoxy-5-(3-(5-((2-oxo-2-(pyrrolidin-1-yl)ethyl)amino)-5,6,7,8-tetrahydronaphthalen-1-yl)-1,2,4-oxadiazol-5-yl)benzonitrile]: the EC50 is 0.05 to 0.5 nM. `CC(C)Oc1ccc(-c2ncc(-c3cccc4c3CCC4O)o2)cc1C#N` (stereo not drawn) [Compound 56, 5-(5-(1-hydroxy-2,3-dihydro-1H-inden-4-yl)oxazol-2-yl)-2-isopropoxybenzonitrile]: the EC50 fell in the range of 0.5 to 5 nM.

Turning to `CC(C)Oc1ccc(-c2ncc(-c3cccc4c3CCC4NCCO)o2)cc1C#N` (stereo not drawn) [Compound 57, 5-(5-(1-(2-hydroxyethylamino)-2,3-dihydro-1H-inden-4-yl)oxazol-2-yl)-2-isopropoxybenzonitrile], the EC50 was 0.5 to 5 nM. For the compound `CC(C)Oc1ccc(-c2ncc(-c3cccc4c3CCC4N[C@H](C)CO)o2)cc1C#N` (stereo partly drawn) [Compound 58, 5-(5-(1-((R)-1-hydroxypropan-2-ylamino)-2,3-dihydro-1H-inden-4-yl)oxazol-2-yl)-2-isopropoxybenzonitrile], the EC50 is above 5 nM. The figure for `CCOc1ccc(Cc2nc(-c3cccc4c3CCC4O)no2)cc1OCC` (stereo not drawn) [Compound 60, 4-(5-(3,4-diethoxybenzyl)-1,2,4-oxadiazol-3-yl)-2,3-dihydro-1H-inden-1-ol] is above 5 nM. `CCOc1ccc(Cc2nc(-c3cccc4c3CCC4NCCO)no2)cc1OCC` (stereo not drawn) [Compound 61, 2-((4-(5-(3,4-diethoxybenzyl)-1,2,4-oxadiazol-3-yl)-2,3-dihydro-1H-inden-1-yl)amino)ethanol]: the EC50 is above 5 nM.

`CCOc1ccc(Cc2nc(-c3cccc4c3CCC4N[C@H](C)CO)no2)cc1OCC` (stereo partly drawn) [Compound 62]: the EC50 is above 5 nM. The figure for `CCOc1ccc(Cc2nc(-c3cccc4c3CCC4NCCS(C)(=O)=O)no2)cc1OCC` (stereo not drawn) [Compound 63, 4-(5-(3,4-diethoxybenzyl)-1,2,4-oxadiazol-3-yl)-N-(2-(methylsulfonyl)ethyl)-2,3-dihydro-1H-inden-1-amine] is above 5 nM; for `CCOc1ccc(Cc2nc(-c3cccc4c3CCC4NCCS(=O)(=O)NC)no2)cc1OCC` (stereo not drawn) [Compound 64, 2-((4-(5-(3,4-diethoxybenzyl)-1,2,4-oxadiazol-3-yl)-2,3-dihydro-1H-inden-1-yl)amino)-N-methylethanesulfonamide] it is above 5 nM. As for `CCOc1ccc(Cc2nc(-c3cccc4c3CC[C@H]4N)no2)cc1OCC` [Compound 65, (R)-4-(5-(3,4-diethoxybenzyl)-1,2,4-oxadiazol-3-yl)-2,3-dihydro-1H-inden-1-amine hydrochloride], the EC50 is above 5 nM. On to `CCOc1ccc(Cc2nc(-c3cccc4c3CC[C@@H]4NCC(=O)N(C)C)no2)cc1OCC` [Compound 66, (S)-2-((4-(5-(3,4-diethoxybenzyl)-1,2,4-oxadiazol-3-yl)-2,3-dihydro-1H-inden-1-yl)amino)-N,N-dimethylacetamide], for which the EC50 is above 5 nM.

On to `OCCN[C@@H]1CCc2c(-c3noc(-c4cc(-c5ccccc5)c(C(F)(F)F)s4)n3)cccc21` [Compound 67, (R)-2-(4-(5-(4-phenyl-5-(trifluoromethyl)thiophen-2-yl)-1,2,4-oxadiazol-3-yl)-2,3-dihydro-1H-inden-1-ylamino)ethanol], for which the EC50 is above 5 nM.

For `CC(C)Oc1ccc(-c2nc(-c3ccc4[nH]ccc4c3)no2)cc1C#N` [Compound 68, 5-(3-(1H-indol-5-yl)-1,2,4-oxadiazol-5-yl)-2-isopropoxybenzonitrile], the EC50 is 0.5 to 5 nM.

For `CC(C)Oc1ccc(-c2nc(-c3ccc4occc4c3)no2)cc1C#N` [Compound 69, 5-(3-(benzofuran-5-yl)-1,2,4-oxadiazol-5-yl)-2-isopropoxybenzonitrile], the EC50 was 0.5 to 5 nM. For `Cc1cnccc1-c1noc(-c2ccc(OC(C)C)c(C#N)c2)n1` [Compound 70, 2-isopropoxy-5-(3-(3-methylpyridin-4-yl)-1,2,4-oxadiazol-5-yl)benzonitrile], the EC50 was below 0.05 nM. As to `CC(C)Oc1ccc(-c2nc(-c3ccnc(CO)c3)no2)cc1C#N` [Compound 71, 5-(3-(2-(hydroxymethyl)pyridin-4-yl)-1,2,4-oxadiazol-5-yl)-2-isopropoxy-benzonitrile], the EC50 was in the range of 0.05 to 0.5 nM.

Source of the values: patent US9394264B2 (Receptos, Inc., priority 2009, dated 2016).
